From PMC7475179, “Characterization of a caffeoyl-CoA O-methyltransferase-like enzyme involved in biosynthesis of polymethoxylated flavones in Citrus reticulata” (Journal of Experimental Botany, 2020)

Tested on: CrOMT1
Assay: MTase-Glo methyltransferase assay (SAH luminescence), Michaelis-Menten fit
Type: biochemical, Citrus reticulata
Conditions: 2 mM SAM, 50 mM Tris-HCl pH 8.0, 37 °C, 30 min

SMILES | Km [µM] | also measured
O=c1cc(-c2ccccc2)oc2c(O)c(O)ccc12 [7,8-dihydroxyflavone] |  | Km (8-O-methylation): 1.8 ± 0.4 µM
O=c1cc(-c2ccccc2)oc2cc(O)c(O)c(O)c12 [baicalein] |  | Km (6-O-methylation): 3.3 ± 0.6 µM
C[C@@H]1O[C@@H](OC[C@H]2O[C@@H](Oc3cc(O)c4c(c3)O[C@H](c3ccc(O)c(O)c3)CC4=O)[C@H](O)[C@@H](O)[C@@H]2O)[C@H](O)[C@H](O)[C@H]1O [eriocitrin, eriodictyol-7-O-rutinoside] | 7.9 ± 1 | 
O=C1C[C@@H](c2ccc(O)c(O)c2)Oc2cc(O)cc(O)c21 [eriodictyol] | 61.8 ± 9.9 | 
O=c1c(O)c(-c2ccc(O)cc2)oc2cc(O)cc(O)c12 [kaempferol] | 248 | 
O=c1cc(-c2ccc(O)c(O)c2)oc2cc(O)cc(O)c12 [luteolin, 5,7,3',4'-tetrahydroxyflavone] |  | Km (3'-O-methylation): 3.1 ± 0.6 µM
O=c1c(O)c(-c2cc(O)c(O)c(O)c2)oc2cc(O)cc(O)c12 [myricetin] | 23.8 ± 4.3 | 
C[C@@H]1O[C@@H](O[C@H]2[C@H](Oc3cc(O)c4c(c3)O[C@H](c3ccc(O)c(O)c3)CC4=O)O[C@H](CO)[C@@H](O)[C@@H]2O)[C@H](O)[C@H](O)[C@H]1O [neoeriocitrin, eriodictyol-7-O-neohesperidoside] | 8.7 ± 1 | 
COc1c(-c2ccc(O)c(O)c2)oc2cc(O)cc(O)c2c1=O [quercetin 3-methyl ether] | 3.9 ± 0.5 | 
O=c1c(O)c(-c2ccc(O)c(O)c2)oc2cc(O)cc(O)c12 [quercetin] | 4.5 ± 0.8 | 
O=c1cc(-c2cc(O)c(O)c(O)c2)oc2cc(O)cc(O)c12 [tricetin] | 0.6 | 
